Measured values: PubChem BioAssay (NCI)
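How tested: cells in 96-well plates exposed to compound for 48 hours at five concentrations. The concentration for 50% growth inhibition is given as GI50. TGI: concentration producing complete growth inhibition.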

Columns and labels:
Test in all cases: inhibition of tumour cell growth, NCI panel, 48 h
[1] = system: OVCAR-3 ovarian
[2] = system: LOX IMVI melanoma
[3] = system: A549 NSCLC
[4] = system: SR leukemia
[5] = system: SF-539 CNS
[6] = system: EKVX NSCLC
[7] = system: NCI-H23 lung
[8] = system: TK-10 renal
[9] = system: U251 CNS
[10] = system: MOLT-4 leukemia

Structure (SMILES)	GI50 [1]	TGI [1]	GI50 [2]	TGI [2]	GI50 [3]	TGI [3]	GI50 [4]	TGI [4]	GI50 [5]	TGI [5]	GI50 [6]	TGI [6]	GI50 [7]	TGI [7]	GI50 [8]	TGI [8]	GI50 [9]	TGI [9]	GI50 [10]	TGI [10]
COc1ccc(C(=O)c2cc(C)c(OC)c(C)c2)c(OC)c1N(C(=O)CCl)C(=O)CCl	0.0398 µM	1.58 µM	0.0731 µM	2.66 µM	0.0834 µM	> 100 µM	0.045 µM	> 100 µM	0.0302 µM	0.141 µM	0.0792 µM	69 µM	0.0696 µM	14.2 µM	13.4 µM	> 100 µM	0.0509 µM	20.3 µM	0.172 µM	24.2 µM
O=C1CCC(N2C(=O)c3cccc(NCCOCCOCCNC(=O)c4cc5c(o4)C(=O)c4ccccc4C5=O)c3C2=O)C(=O)N1 (stereo not given)	0.295 µM	1.03 µM	1.1 µM	2.5 µM	2.18 µM	4.91 µM	1.76 µM	22.9 µM	1.62 µM	2.99 µM	2.62 µM	8.39 µM	0.352 µM	1.71 µM	3.81 µM	9.08 µM	1.72 µM	3.25 µM	2.73 µM	7.11 µM
CN1CCN(Cc2ccc(NC(=O)c3cccc(C#Cc4c(N)ncc5ccc(F)cc45)c3)cc2C(F)(F)F)CC1	0.853 µM	1.8 µM	0.597 µM	1.25 µM	0.877 µM	1.77 µM	1.02 µM	2.71 µM	0.548 µM	1.19 µM	0.879 µM	1.95 µM	0.865 µM	1.67 µM	1.14 µM	2.35 µM	0.833 µM	1.6 µM	0.681 µM	1.63 µM
COc1cc(=O)oc(/C=C/C=C/C=C/C(C)=C\C2(C)OC(C)C(C)(O)C2O)c1C (stereo not given)		> 100 µM		> 100 µM		> 100 µM		> 100 µM		> 100 µM		> 100 µM		> 100 µM		> 100 µM		> 100 µM		> 100 µM
NC(N)=NC(N)=Nc1ccc(S(N)(=O)=O)cc1		> 100 µM		> 100 µM		> 100 µM		> 100 µM		> 100 µM		> 100 µM		> 100 µM		> 100 µM		> 100 µM		> 100 µM
CN=C(N)NC		> 100 µM		> 100 µM		> 100 µM		> 100 µM		> 100 µM		> 100 µM		> 100 µM		> 100 µM		> 100 µM		> 100 µM
CC(C)Cc1ccc(C(C)/C=C2\CCC(CN3CCCCC3)C2=O)cc1 (stereo not given)		11 µM		3.99 µM		39.9 µM		8.23 µM		11.4 µM		21.1 µM		20.8 µM		8.95 µM		4.94 µM		5.7 µM
N.N.NCCCCCN.O=C([O-])CC(=O)[O-].O=C([O-])CC(=O)[O-].[Pt+4].[Pt+4]	> 100 µM	> 100 µM	> 100 µM	> 100 µM	> 100 µM	> 100 µM	58.6 µM	> 100 µM	77.4 µM	> 100 µM	> 100 µM	> 100 µM	98.3 µM	> 100 µM	> 100 µM	> 100 µM	> 100 µM	> 100 µM	65.5 µM	> 100 µM
CCN(CC)CCC(=O)N1C/C(=C/c2ccccc2)C(=O)/C(=C\c2ccccc2)C1		11 µM		0.949 µM		17.1 µM		> 100 µM		10.8 µM		13.6 µM		3.91 µM		18.4 µM		1.9 µM		1.33 µM
Cn1cc2ccccc2c1-c1nc(F)nc(Nc2ccc(N)cc2)n1		48.3 µM		27 µM		65.3 µM		72.4 µM		35.1 µM		60.4 µM		29.3 µM		> 100 µM		26.4 µM		65.5 µM
Nc1nc(CC2(O)CCCCC2)cc(-c2ccccc2)n1		> 63.6 µM		> 55.5 µM		> 72.4 µM		49.6 µM		> 100 µM		> 100 µM		> 66.4 µM		> 100 µM		> 100 µM		53.9 µM
